Test results: DBAASP
Values after ≈ are worked out from the molar mass of the structure shown. Each block holds one compound with its values, some of them ahead of it.

Columns and labels:
Assay in all cases: ≥ marks a high value that may be exact or a test limit, other limits are often not marked, values filed in µg/mL are converted to µM
[1] = system: Candida albicans NCYC 1467
[2] = system: Candida parapsilosis ATCC 22019
[3] = system: Enterococcus faecalis ATCC 29212
[4] = system: Escherichia coli ATCC 25922
Escherichia coli ML-35p = system: Escherichia coli ML-35p
[5] = system: Pseudomonas aeruginosa ATCC 27853
[6] = system: Staphylococcus aureus ATCC 25923
[7] = system: Staphylococcus aureus ATCC 43300
[8] = system: Staphylococcus aureus ATCC BAA-44
[9] = system: Staphylococcus aureus NCTC 10788
[10] = system: Staphylococcus aureus ST1065
[11] = system: Bacillus licheniformis X39
[12] = system: Candida albicans ATCC 2002
[13] = system: Enterococcus faecium 091299
[14] = system: Psychrobacter faecalis X29
[15] = system: Rhodococcus rhodochrous X15
[16] = system: Staphylococcus carnosus KHS
Acinetobacter baumannii = system: Acinetobacter baumannii
[17] = system: Candida albicans NCTC 3179
[18] = system: Enterococcus faecalis NCTC 12697
[19] = system: Escherichia coli ATCC 25726
[20] = system: Fusobacterium nucleatum NCTC 10562
[21] = system: Helicobacter pylori ATCC 43504
[22] = system: Pseudomonas aeruginosa PAO239
[23] = system: Stenotrophomonas maltophilia
[24] = system: Streptococcus mutans ATCC 10449
[25] = system: Acinetobacter baumannii 5821
[26] = system: Enterobacter cloacae 06-267
[27] = system: Enterobacter cloacae 14-262
Escherichia coli 09-240 = system: Escherichia coli 09-240
Escherichia coli 09-280 = system: Escherichia coli 09-280
Escherichia coli 170 = system: Escherichia coli 170
Escherichia coli 5509 = system: Escherichia coli 5509
[28] = system: Klebsiella pneumoniae 01-239
[29] = system: Klebsiella pneumoniae 01-252
[30] = system: Pseudomonas aeruginosa 3599
[31] = system: Pseudomonas aeruginosa 5106
[32] = system: Pseudomonas aeruginosa ATCC 9027
[33] = system: Staphylococcus aureus 01-001
[34] = system: Staphylococcus aureus 06-051
[35] = system: Staphylococcus aureus ATCC 29213
[36] = system: Bacillus subtilis ATCC 6633
[37] = system: Pseudomonas fluorescens ATCC 13525
[38] = system: Staphylococcus aureus ATCC 2592

MIC [1]: ≥ 71.2 µM
MIC [2]: ≥ 100 µM
MIC [3]: 100 µM (≈ 180 µg/mL)
MIC [4]: > 100 µM
MIC (Escherichia coli ML-35p): ≥ 100 µM
MIC [5]: > 100 µM
MIC [6]: 25 µM (≈ 44.9 µg/mL)
MIC [7]: > 100 µM
MIC [8]: ≥ 100 µM
MIC [9]: 17.8 µM (≈ 32 µg/mL)
MIC [10]: ≥ 100 µM
Structure (SMILES): CC[C@H](C)[C@H](NC(=O)[C@H](C)NC(=O)[C@H](CO)NC(=O)[C@@H](NC(=O)[C@H](C)NC(=O)[C@@H](NC(=O)[C@@H]1CCCN1C(=O)[C@@H](NC(=O)[C@H](CCSC)NC(=O)CNC(=O)[C@H](CC(C)C)NC(=O)[C@@H](N)CC(C)C)[C@@H](C)CC)C(C)C)[C@@H](C)CC)C(=O)N[C@@H](CO)C(=O)N[C@@H](C)C(=O)N[C@@H](CC(C)C)C(=O)N[C@@H](CO)C(=O)N[C@@H](CCCCN)C(=O)N[C@@H](CC(C)C)C(N)=O [LLGMIPVAISAISALSKL]

MIC [11]: ≥ 37.5 µM
MIC [12]: 19 µM (≈ 62.8 µg/mL)
MIC [13]: ≥ 150 µM
MIC [14]: 9.5 µM (≈ 31.4 µg/mL)
MIC [15]: 9.5 µM (≈ 31.4 µg/mL)
MIC [6]: 19 µM (≈ 62.8 µg/mL)
MIC [16]: ≥ 150 µM
Structure (SMILES): CC[C@H](C)[C@H](NC(=O)[C@H](CC(C)C)NC(=O)[C@H](CC(C)C)NC(=O)[C@H](CC(=O)O)NC(=O)[C@H](CCCCN)NC(=O)[C@@H](NC(=O)[C@@H](NC(=O)CNC(=O)[C@H](CC(C)C)NC(=O)[C@H](CC(C)C)NC(=O)[C@@H](N)CO)[C@@H](C)O)C(C)C)C(=O)NCC(=O)N[C@@H](C)C(=O)NCC(=O)N[C@@H](CCCCN)C(=O)N[C@@H](CO)C(=O)N[C@@H](C)C(=O)N[C@@H](C)C(=O)N[C@@H](CCC(N)=O)C(=O)N[C@@H](CO)C(=O)N[C@H](C(=O)N[C@@H](CC(C)C)C(=O)N[C@@H](CCCCN)C(=O)NCC(=O)N[C@@H](CC(C)C)C(=O)N[C@@H](CO)C(=O)N[C@H]1CSSC[C@@H](C(=O)O)NC(=O)[C@H](CC(=O)O)NC(=O)[C@H](CCCCN)NC(=O)[C@H](CO)NC(=O)[C@H](CC(C)C)NC(=O)[C@H](CCCCN)NC1=O)C(C)C [SLLGTVKDLLIGAGKSAAQSVLKGLSCKLSKDC]

MIC (Acinetobacter baumannii): 11.3 µM (≈ 23.4 µg/mL)
MIC [17]: ≥ 50 µM
MIC [18]: ≥ 100 µM
MIC [19]: 12.5 µM (≈ 25.9 µg/mL)
MIC [4]: 25 µM (≈ 51.7 µg/mL)
MIC [20]: 12.5 µM (≈ 25.9 µg/mL)
MIC [21]: 0.483 µM (≈ 1 µg/mL)
MIC [5]: 12.5 µM (≈ 25.9 µg/mL)
MIC [22]: 25 µM (≈ 51.7 µg/mL)
MIC [6]: 35.4 µM (≈ 73.2 µg/mL)
MIC [23]: 5.66 µM (≈ 11.7 µg/mL)
MIC [24]: 3.1 µM (≈ 6.42 µg/mL)
Structure (SMILES): CSCC[C@H](NC(=O)CN)C(=O)N[C@@H](C)C(=O)N[C@@H](CO)C(=O)N[C@@H](CCCCN)C(=O)N[C@@H](C)C(=O)NCC(=O)N[C@@H](CO)C(=O)N[C@H](C(=O)N[C@@H](CC(C)C)C(=O)NCC(=O)N[C@@H](CCCCN)C(=O)N[C@H](C(=O)N[C@@H](C)C(=O)N[C@@H](CCCCN)C(=O)N[C@H](C(=O)N[C@@H](C)C(=O)N[C@@H](CC(C)C)C(=O)N[C@@H](CCCCN)C(=O)N[C@@H](C)C(=O)N[C@@H](C)C(=O)N[C@@H](CC(C)C)C(N)=O)C(C)C)C(C)C)C(C)C [GMASKAGSVLGKVAKVALKAAL]

MIC [25]: 14 µM (≈ 20.2 µg/mL)
MIC [26]: ≥ 32 µM
MIC [27]: ≥ 32 µM
MIC (Escherichia coli 09-240): 30 µM (≈ 43.3 µg/mL)
MIC (Escherichia coli 09-280): ≥ 32 µM
MIC (Escherichia coli 170): ≥ 32 µM
MIC (Escherichia coli 5509): ≥ 32 µM
MIC [4]: 15 µM (≈ 21.6 µg/mL)
MIC [28]: ≥ 32 µM
MIC [29]: ≥ 32 µM
MIC [30]: ≥ 32 µM
MIC [31]: ≥ 32 µM
MIC [5]: > 32 µM
MIC [32]: 2 µM (≈ 2.89 µg/mL)
MIC [33]: 2 µM (≈ 2.89 µg/mL)
MIC [34]: 2 µM (≈ 2.89 µg/mL)
MIC [6]: 1 µM (≈ 1.44 µg/mL)
MIC [35]: 4 µM (≈ 5.77 µg/mL)
Structure (SMILES): CC[C@H](C)[C@H](N)C(=O)N[C@@H](Cc1c[nH]c2ccccc12)C(=O)N[C@@H](CO)C(=O)N[C@@H](C)C(=O)N[C@H](C(=O)N[C@@H](Cc1c[nH]c2ccccc12)C(=O)N[C@@H](CO)C(=O)NCC(=O)N[C@H](C(=O)N[C@@H](CCCCN)C(=O)NCC(=O)N[C@@H](CC(C)C)C(=O)N[C@@H](CC(C)C)C(N)=O)[C@@H](C)CC)[C@@H](C)CC [IWSAIWSGIKGLL]

MIC [36]: 2.42 µM (≈ 6.25 µg/mL)
MIC [12]: 19.4 µM (≈ 50 µg/mL)
MIC [37]: ≥ 38.8 µM
MIC [38]: 2.42 µM (≈ 6.25 µg/mL)
Structure (SMILES): CC[C@H](C)[C@H](NC(=O)[C@H](CCCN=C(N)N)NC(=O)[C@H](CC(C)C)NC(=O)[C@H](C)NC(=O)[C@H](CO)NC(=O)CNC(=O)[C@H](CCSC)NC(=O)[C@@H](N)Cc1ccccc1)C(=O)N[C@@H](C)C(=O)N[C@@H](C)C(=O)N[C@@H](CCCCN)C(=O)N[C@H](C(=O)N[C@@H](CC(C)C)C(=O)N1CCC[C@H]1C(=O)N[C@@H](C)C(=O)N[C@@H](C)C(=O)N[C@@H](CC(C)C)C(=O)N[C@H]1CSSC[C@@H](C(=O)O)NC(=O)[C@H](CCCCN)NC(=O)[C@H](CCCCN)NC(=O)[C@H](Cc2ccccc2)NC(=O)[C@H]([C@@H](C)CC)NC(=O)[C@H](CCC(N)=O)NC1=O)C(C)C [FMGSALRIAAKVLPAALCQIFKKC]
